Reference: patent US9546157B2, “Asymmetric piperidinyl-substituted ureas as medicines” (Helsinn Healthcare SA, priority 2014, dated 2017)

Experiments:
[1] = target: T1, GHSR1a (Homo sapiens, UniProt Q92847); assay: Calcium FLIPR assay, GHSR-1a agonism; format: cell-based; parameters: Emax: unit not given here; settings: HEK293/GHSR1a cells
T1 construct: expressed in transfected cells; host or cells: HEK293
Outline: (§1)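 Uses HEK293 cells expressing GHSR1a, loaded with calcium dye, with FLIPR fluorescence followed for 2 min after addition at t=20 s. Agonism: compound alone. Antagonism: compound with 10 nM ghrelin, potency from reduction of ghrelin response; EC50/IC50 from dose-response curves.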

[2] = target: T1, GHSR1a; assay: Calcium FLIPR assay, GHSR-1a antagonism (reduction of ghrelin response); format: cell-based; settings: HEK293/GHSR1a cells, ghrelin 10 nM
Outline: as §1

[3] = Metabolic Stability (H = Human); format: in vitro ADME
[4] = Metabolic Stability (M = Mouse); format: in vitro ADME

T1 sequence (Q92847 whole entry): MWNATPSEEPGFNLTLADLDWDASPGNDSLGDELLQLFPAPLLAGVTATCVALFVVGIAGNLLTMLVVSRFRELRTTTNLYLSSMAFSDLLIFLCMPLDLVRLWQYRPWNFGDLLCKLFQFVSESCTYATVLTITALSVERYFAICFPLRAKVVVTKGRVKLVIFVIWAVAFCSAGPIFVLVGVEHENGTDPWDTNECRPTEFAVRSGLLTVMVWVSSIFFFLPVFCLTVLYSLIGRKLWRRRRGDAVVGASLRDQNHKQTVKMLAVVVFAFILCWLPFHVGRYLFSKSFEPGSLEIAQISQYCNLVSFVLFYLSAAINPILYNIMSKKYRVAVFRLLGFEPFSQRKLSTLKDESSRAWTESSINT

In the case of `CC(NC(=O)N(C)C1CCN(C)CC1)c1ccc(I)c(Cl)c1Cl` (centres unmarked) [Compound H0519, 3-(1-(2,3-dichloro-4-iodophenyl)ethyl)-1-methyl-1-(1-methylpiperidin-4-yl)urea], the EC50 [1] is reported as 6 nM, the IC50 [2] is reported as 3 nM and the “Metabolic Stability H” value [3] is reported as “Medium H Medium M”. The “Metabolic Stability M” value [4] was “Medium H Medium M”.
With `CN1CCC(N(C)C(=O)NC(CC2CC2)c2ccc(-c3cccnc3)c(Cl)c2Cl)CC1` (centres unmarked) [Compound H0720, 3-(2-cyclopropyl-1-(2,3-dichloro-4-(pyridin-3-yl)phenyl)ethyl)-1-methyl-1-(1-methylpiperidin-4-yl)urea] the EC50 [1] was > 30000 nM, the IC50 [2] was 8 nM and the “Metabolic Stability H” value [3] was “Medium”. The “Metabolic Stability M” value [4] was “High”.
In the case of `CC(NC(=O)N(O)C1CCN(C)CC1)c1ccc(-c2cccs2)c(Cl)c1Cl` (centres unmarked) [Compound H0627, 3-(1-(2,3-dichloro-4-(thiophen-2-yl)phenyl)ethyl)-1-hydroxy-1-(1-methylpiperidin-4-yl)urea], the EC50 [1] is reported as 1 nM, the Emax [1] is reported as 5289 and the IC50 [2] is reported as 4 nM. For the same molecule, the “Metabolic Stability H” value [3] was “High H High M” and the “Metabolic Stability M” value [4] was “High H High M”.
With `COC(=O)c1ccc(CN(C(=O)NC(C)c2ccc(-c3cn[nH]c3)c(Cl)c2Cl)C2CCN(C)CC2)cc1` (centres unmarked) [Compound H0537, methyl 4-((3-(1-(2,3-dichloro-4-(1H-pyrazol-4-yl)phenyl)ethyl)-1-(1-methylpiperidin-4-yl)ureido)methyl)benzoate] the EC50 [1] was > 30000 nM, the IC50 [2] was 13 nM and the “Metabolic Stability H” value [3] was “Poor H Poor M”. For the same molecule, the “Metabolic Stability M” value [4] was “Poor H Poor M”.
In the case of `CCC(NC(=O)N(C)C1CCN(C)C1)c1ccc(-c2cnccn2)c(Cl)c1Cl` (centres unmarked) [Compound H0857, 3-(1-(2,3-dichloro-4-(pyrazin-2-yl)phenyl)propyl)-1-methyl-1-(1-methylpyrrolidin-3-yl)urea], the EC50 [1] is reported as > 30000 nM, the IC50 [2] is reported as 10 nM and the “Metabolic Stability H” value [3] is reported as “Medium”. The “Metabolic Stability M” value [4] was “Low”.
In the case of `CC(NC(=O)N(C)C1CCN(C)CC1)c1ccc(-c2cscn2)c(Cl)c1Cl` (centres unmarked) [Compound H0568, 3-(1-(2,3-dichloro-4-(thiazol-4-yl)phenyl)ethyl)-1-methyl-1-(1-methylpiperidin-4-yl)urea], the EC50 [1] is reported as 4 nM, the IC50 [2] is reported as 9 nM and the “Metabolic Stability H” value [3] is reported as “High H High M”. The “Metabolic Stability M” value [4] was “High H High M”.
In the case of `CN1CCC(N(C)C(=O)NC(c2ccc(-c3cncc(F)n3)c(Cl)c2Cl)C(F)(F)F)CC1` (centres unmarked) [Compound H0908, 3-(1-(2,3-dichloro-4-(6-fluoropyrazin-2-yl)phenyl)-2,2,2-trifluoroethyl)-1-methyl-1-(1-methylpiperidin-4-yl)urea], the EC50 [1] is reported as > 30000 nM, the IC50 [2] is reported as 8 nM and the “Metabolic Stability H” value [3] is reported as “Medium”. For the same molecule, the “Metabolic Stability M” value [4] was “High”.
In the case of `CC(NC(=O)N(C)C1CCN(C)CC1C)c1ccc(-c2cn[nH]c2)c(Cl)c1Cl` (centres unmarked) [Compound H0528, 3-(1-(2,3-dichloro-4-(1H-pyrazol-4-yl)phenyl)ethyl)-1-(1,3-dimethylpiperidin-4-yl)-1-methylurea], the EC50 [1] is reported as > 30000 nM, the IC50 [2] is reported as 34 nM and the “Metabolic Stability H” value [3] is reported as “Medium H Medium M”. For the same molecule, the “Metabolic Stability M” value [4] was “Medium H Medium M”.
For `CC(NC(=O)N(C)C1CCN(C)CC1)c1ccc(-c2c[nH]nn2)c(Cl)c1Cl` (centres unmarked) [Compound H0604, 3-(1-(2,3-dichloro-4-(1H-1,2,3-triazol-4-yl)phenyl)ethyl)-1-methyl-1-(1-methylpiperidin-4-yl)urea], the EC50 [1] was 25 nM, the IC50 [2] was 12 nM and the “Metabolic Stability H” value [3] was “High H High M”. For the same molecule, the “Metabolic Stability M” value [4] was “High H High M”.
For `CCC(NC(=O)N(C)[C@@H]1CCN(C)CC1(C)C)c1ccc(-c2cnccn2)c(Cl)c1Cl` (stereo partly drawn) [Compound H0858, 3-(1-(2,3-dichloro-4-(pyrazin-2-yl)phenyl)propyl)-1-methyl-1-((R)-1,3,3-trimethylpiperidin-4-yl)urea], the EC50 [1] was > 30000 nM, the IC50 [2] was 8 nM and the “Metabolic Stability H” value [3] was “Medium H Medium M”. The “Metabolic Stability M” value [4] was “Medium H Medium M”.
